The values below come from patent US20250346585A1 (Alexion Pharmaceuticals, Inc., priority 2022, published 2025).

Sequence of Human complement C1s enzyme (P09871 438-688 limits assumed): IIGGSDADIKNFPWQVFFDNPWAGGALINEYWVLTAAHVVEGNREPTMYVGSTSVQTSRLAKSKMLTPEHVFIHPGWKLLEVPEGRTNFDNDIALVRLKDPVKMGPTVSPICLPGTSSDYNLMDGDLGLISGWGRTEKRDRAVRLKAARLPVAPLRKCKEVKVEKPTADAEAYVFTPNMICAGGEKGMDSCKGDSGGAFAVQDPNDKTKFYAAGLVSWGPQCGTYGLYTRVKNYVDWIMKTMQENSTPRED
Sequence of Human complement C1s enzyme (P09871 16-437 partner limits assumed): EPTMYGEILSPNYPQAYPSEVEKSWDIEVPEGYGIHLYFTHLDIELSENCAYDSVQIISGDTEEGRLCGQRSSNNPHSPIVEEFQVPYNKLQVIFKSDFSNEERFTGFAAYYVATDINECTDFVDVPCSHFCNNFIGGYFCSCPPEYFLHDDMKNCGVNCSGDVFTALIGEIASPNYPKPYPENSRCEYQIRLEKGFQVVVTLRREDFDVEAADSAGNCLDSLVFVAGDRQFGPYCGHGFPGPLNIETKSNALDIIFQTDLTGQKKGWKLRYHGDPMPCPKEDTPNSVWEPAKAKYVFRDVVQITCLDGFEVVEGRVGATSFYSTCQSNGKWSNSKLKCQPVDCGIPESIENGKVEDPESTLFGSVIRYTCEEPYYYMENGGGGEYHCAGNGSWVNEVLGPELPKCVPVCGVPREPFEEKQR

This experiment addresses Human complement C1s enzyme (Homo sapiens (Human), UniProt P09871). The experiment is described as follows: Human C1s enzyme assay. The experiment is classed as biochemical. To be noted: Human C1s enzyme assay of Example 3; read-out: IC50 (Stars). The procedure, abridged: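 Purified serum-derived human C1s (1.16 nM final) preincubated 5 min at room temperature with compound in 50 mM Tris, 1 M NaCl, pH 7.5. Z-L-Lys-SBzl thioester substrate and DTNB added (100 μM each, final); A405 read every 30 s for 30 min. IC50 from nonlinear regression of reaction rates against compound concentration.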
As a reminder, the IC50 is the concentration that gives 50% inhibition. On to `C[C@@H](NC(=O)[C@@H]1C[C@]2(COCCN)C[C@@H]2N1C(=O)CNC(=O)c1ccc(Oc2ccc(F)cc2)cc1)c1cc(C(=N)N)cs1` [Compound 69, (1S,3S,5R)-5-((2-aminoethoxy)methyl)-N—((R)-1-(4-carbamimidoylthiophen-2-yl)ethyl)-2-((4-(4-fluorophenoxy)benzoyl)glycyl)-2-azabicyclo[3.1.0]hexane-3-carboxamide], for which the IC50 is less than 100 nM.

Consider `CO[C@@H]1C[C@@H](C(=O)N[C@H](C)c2cc(C(=N)N)cs2)N(C(=O)CNC(=O)c2ccc(Oc3ccc(F)cc3)cc2)C1` [Compound 70, (2S,4R)—N—((R)-1-(4-carbamimidoylthiophen-2-yl)ethyl)-1-((4-(4-fluorophenoxy)benzoyl)glycyl)-4-methoxypyrrolidine-2-carboxamide], for which the IC50 is less than 100 nM.

For the compound `CO[C@@H]1C[C@@H](C(=O)N[C@H](C)c2cc(C(=N)N)cs2)N(C(=O)CNC(=O)c2ccc3c(c2)-c2ccccc2C3(F)F)C1` [Compound 71, (2S,4R)—N—((R)-1-(4-carbamimidoylthiophen-2-yl)ethyl)-1-((9,9-difluoro-9H-fluorene-3-carbonyl)glycyl)-4-methoxypyrrolidine-2-carboxamide], the IC50 is less than 100 nM.

`COC[C@@]12C[C@@H]1N(C(=O)CNC(=O)c1ccc3c(c1)-c1ccccc1C3(F)F)[C@H](C(=O)N[C@H](C)c1cc(C(=N)N)cs1)C2` [Compound 72, (1S,3S,5R)—N—((R)-1-(4-carbamimidoylthiophen-2-yl)ethyl)-2-((9,9-difluoro-9H-fluorene-3-carbonyl)glycyl)-5-(methoxymethyl)-2-azabicyclo[3.1.0]hexane-3-carboxamide]: the IC50 was less than 100 nM.

With `N=C(N)c1csc(CNC(=O)[C@@H]2CC3(CN2C(=O)CNC(=O)c2ccc(-c4ccc(F)cc4)cc2)OCCO3)c1` [Compound 73, (S)—N-((4-carbamimidoylthiophen-2-yl)methyl)-7-((4′-fluoro-[1,1′-biphenyl]-4-carbonyl)glycyl)-1,4-dioxa-7-azaspiro[4.4]nonane-8-carboxamide], the IC50 is less than 100 nM.

Turning to `N=C(N)c1csc(CNC(=O)[C@@H]2CC3(CN2C(=O)CNC(=O)c2ccc(Oc4ccccc4)cc2F)OCCO3)c1` [Compound 74, (S)—N-((4-carbamimidoylthiophen-2-yl)methyl)-7-((2-fluoro-4-phenoxybenzoyl)glycyl)-1,4-dioxa-7-azaspiro[4.4]nonane-8-carboxamide], the IC50 is less than 100 nM.

On to `O=C(NCC(=O)N1CC2(C[C@H]1C(=O)NCc1cc(Br)cs1)OCCO2)c1ccc(Oc2ccc(F)cc2)cc1` [Compound 75, (S)—N-((4-bromothiophen-2-yl)methyl)-7-((4-(4-fluorophenoxy)benzoyl)glycyl)-1,4-dioxa-7-azaspiro[4.4]nonane-8-carboxamide], for which the IC50 was greater than 1000 nM.

Take `O=C(NCC(=O)N1CC2(C[C@H]1C(=O)NCc1cc(-c3cc(C(F)(F)F)[nH]n3)cs1)OCCO2)c1ccc(Oc2ccc(F)cc2)cc1` [Compound 76, (S)-7-((4-(4-fluorophenoxy)benzoyl)glycyl)-N-((4-(5-(trifluoromethyl)-1H-pyrazol-3-yl)thiophen-2-yl)methyl)-1,4-dioxa-7-azaspiro[4.4]nonane-8-carboxamide]: the IC50 was greater than 1000 nM.

On to `N=C(N)c1csc(CNC(=O)[C@@H]2CC3(CN2C(=O)CNC(=O)c2ccc(-c4ccccc4)cc2)OCCO3)c1` [Compound 77, (S)-7-(([1,1′-biphenyl]-4-carbonyl)glycyl)-N-((4-carbamimidoylthiophen-2-yl)methyl)-1,4-dioxa-7-azaspiro[4.4]nonane-8-carboxamide], for which the IC50 was less than 100 nM.

Consider `C[C@@H](NC(=O)[C@@H]1CC2(CN1C(=O)CNC(=O)c1ccc3cc4ccccc4cc3c1)OCCO2)c1cc(C(=N)N)cs1` [Compound 78, (S)-7-((anthracene-2-carbonyl)glycyl)-N—((R)-1-(4-carbamimidoylthiophen-2-yl)ethyl)-1,4-dioxa-7-azaspiro[4.4]nonane-8-carboxamide], for which the IC50 was less than 100 nM.

Take `C[C@@H](NC(=O)[C@@H]1C[C@@H](c2ccccc2)CN1C(=O)CNC(=O)c1ccc2c(c1)-c1ccccc1C2(F)F)c1cc(C(=N)N)cs1` [Compound 81, (2S,4S)—N—((R)-1-(4-carbamimidoylthiophen-2-yl)ethyl)-1-((9,9-difluoro-9H-fluorene-3-carbonyl)glycyl)-4-phenylpyrrolidine-2-carboxamide]: the IC50 was less than 100 nM.

Regarding `C[C@@H](NC(=O)[C@@H]1CC2(CN1C(=O)CNC(=O)c1ccc(C(F)(F)c3ccccc3)cc1)OCCO2)c1cc(C(=N)N)cs1` [Compound 82, (S)—N—((R)-1-(4-carbamimidoylthiophen-2-yl)ethyl)-7-((4-(difluoro(phenyl)methyl)benzoyl)glycyl)-1,4-dioxa-7-azaspiro[4.4]nonane-8-carboxamide], the IC50 is less than 100 nM.

Take `N=C(N)c1csc(CNC(=O)[C@@H]2CC3(CN2C(=O)CNC(=O)c2ccc(-c4ccccc4)cc2F)OCCO3)c1` [Compound 83, (S)—N-((4-carbamimidoylthiophen-2-yl)methyl)-7-((3-fluoro-[1,1′-biphenyl]-4-carbonyl)glycyl)-1,4-dioxa-7-azaspiro[4.4]nonane-8-carboxamide]: the IC50 was less than 100 nM.

`C[C@H](O)[C@H](O)[C@@H](O)[C@@H](O)CNCC(=O)NCCOC[C@@]12C[C@@H]1N(C(=O)CNC(=O)c1ccc(Oc3ccc(F)cc3)cc1)[C@H](C(=O)N[C@H](C)c1cc(C(=N)N)cs1)C2` [Compound 84, (1S,3S,5R)—N—((R)-1-(4-carbamimidoylthiophen-2-yl)ethyl)-2-((4-(4-fluorophenoxy)benzoyl)glycyl)-5-((2-(2-(((2S,3S,4S,5S)-2,3,4,5-tetrahydroxyhexyl)amino)acetamido)ethoxy)methyl)-2-azabicyclo[3.1.0]hexane-3-carboxamide]: the IC50 is less than 100 nM.

As for `C[C@@H](NC(=O)[C@@H]1CC2(CN1C(=O)CNC(=O)c1ccc(Oc3ccc(F)cc3)cc1)OCCO2)c1ccc(C(=N)N)s1` [Compound 85, (S)—N—((R)-1-(5-carbamimidoylthiophen-2-yl)ethyl)-7-((4-(4-fluorophenoxy)benzoyl)glycyl)-1,4-dioxa-7-azaspiro[4.4]nonane-8-carboxamide], the IC50 is less than 100 nM.

Turning to `C[C@@H](NC(=O)[C@@H]1C[C@@H](OC(F)F)CN1C(=O)CNC(=O)c1ccc(Oc2ccc(F)cc2)cc1)c1cc(-c2ncc[nH]2)cs1` [Compound 86, (2S,4R)—N—((R)-1-(4-(1H-imidazol-2-yl)thiophen-2-yl)ethyl)-4-(difluoromethoxy)-1-((4-(4-fluorophenoxy)benzoyl)glycyl)pyrrolidine-2-carboxamide], the IC50 is less than 100 nM.

Turning to `C[C@@H](NC(=O)[C@@H]1CC2(CN1C(=O)CNC(=O)c1ccc3c(c1)-c1ccccc1C3(F)F)OCCO2)c1cc(-c2ncc[nH]2)cs1` [Compound 87, (S)—N—((R)-1-(4-(1H-imidazol-2-yl)thiophen-2-yl)ethyl)-7-((9,9-difluoro-9H-fluorene-3-carbonyl)glycyl)-1,4-dioxa-7-azaspiro[4.4]nonane-8-carboxamide], the IC50 was less than 100 nM.

With `N=C(N)c1csc(CNC(=O)[C@@H]2CC3(CN2C(=O)CNC(=O)c2ccc4c(c2)-c2ccccc2C4=O)OCCO3)c1` [Compound 88, (S)—N-((4-carbamimidoylthiophen-2-yl)methyl)-7-((9-oxo-9H-fluorene-3-carbonyl)glycyl)-1,4-dioxa-7-azaspiro[4.4]nonane-8-carboxamide], the IC50 was less than 100 nM.

As for `C[C@H](O)[C@H](O)[C@@H](O)[C@@H](O)CNCC(=O)NCCOC[C@@]12C[C@@H]1N(C(=O)CNC(=O)c1ccc3c(c1)-c1ccccc1C3(F)F)[C@H](C(=O)N[C@H](C)c1cc(C(=N)N)cs1)C2` [Compound 89, (1S,3S,5R)—N—((R)-1-(4-carbamimidoylthiophen-2-yl)ethyl)-2-((9,9-difluoro-9H-fluorene-3-carbonyl)glycyl)-5-((2-(2-(((2S,3S,4S,5S)-2,3,4,5-tetrahydroxyhexyl)amino)acetamido)ethoxy)methyl)-2-azabicyclo[3.1.0]hexane-3-carboxamide], the IC50 is less than 100 nM.

For `C[C@@H](NC(=O)[C@@H]1CC2(CN1C(=O)CNC(=O)c1ccc(-c3ccccc3)cc1)OCCO2)c1cc(C(=N)N)cs1` [Compound 90, (S)-7-(([1,1′-biphenyl]-4-carbonyl)glycyl)-N—((R)-1-(4-carbamimidoylthiophen-2-yl)ethyl)-1,4-dioxa-7-azaspiro[4.4]nonane-8-carboxamide], the IC50 is less than 100 nM.

`C[C@@H](NC(=O)[C@@H]1CC2(CN1C(=O)CNC(=O)c1ccc3c(c1)-c1ccccc1C3(F)F)OCCO2)c1cc(-c2cncnc2)cs1` [Compound 91, (S)-7-((9,9-difluoro-9H-fluorene-3-carbonyl)glycyl)-N—((R)-1-(4-(pyrimidin-5-yl)thiophen-2-yl)ethyl)-1,4-dioxa-7-azaspiro[4.4]nonane-8-carboxamide]: the IC50 was greater than 1000 nM.

Turning to `C[C@@H](NC(=O)[C@@H]1CC2(CN1C(=O)CNC(=O)c1ccc3c(c1)-c1ccccc1C3(F)F)OCCO2)c1cc(-c2nn[nH]n2)cs1` [Compound 92, (S)—N—((R)-1-(4-(2H-tetrazol-5-yl)thiophen-2-yl)ethyl)-7-((9,9-difluoro-9H-fluorene-3-carbonyl)glycyl)-1,4-dioxa-7-azaspiro[4.4]nonane-8-carboxamide], the IC50 was greater than 1000 nM.

Turning to `C[C@@H](NC(=O)[C@@H]1C[C@H](C2CCCCC2)CN1C(=O)CNC(=O)c1ccc(Oc2ccc(F)cc2)cc1)c1cc(C(=N)N)cs1` [Compound 93, (2S,4R)—N—((R)-1-(4-carbamimidoylthiophen-2-yl)ethyl)-4-cyclohexyl-1-((4-(4-fluorophenoxy)benzoyl)glycyl)pyrrolidine-2-carboxamide], the IC50 was less than 100 nM.

As to `C[C@@H](NC(=O)[C@@H]1CC2(CN1C(=O)CNC(=O)c1ccc3c(c1)-c1ccccc1C3(C)C)OCCO2)c1cc(C(=N)N)cs1` [Compound 94, (S)—N—((R)-1-(4-carbamimidoylthiophen-2-yl)ethyl)-7-((9,9-dimethyl-9H-fluorene-3-carbonyl)glycyl)-1,4-dioxa-7-azaspiro[4.4]nonane-8-carboxamide], the IC50 was less than 100 nM.
